One experiment has as its target T1, human ETB R (Homo sapiens, UniProt P24530).
T1 construct: expressed in transfected cells; host or cells: CHO-K1 cells, membranes
T1 sequence (P24530 27-442): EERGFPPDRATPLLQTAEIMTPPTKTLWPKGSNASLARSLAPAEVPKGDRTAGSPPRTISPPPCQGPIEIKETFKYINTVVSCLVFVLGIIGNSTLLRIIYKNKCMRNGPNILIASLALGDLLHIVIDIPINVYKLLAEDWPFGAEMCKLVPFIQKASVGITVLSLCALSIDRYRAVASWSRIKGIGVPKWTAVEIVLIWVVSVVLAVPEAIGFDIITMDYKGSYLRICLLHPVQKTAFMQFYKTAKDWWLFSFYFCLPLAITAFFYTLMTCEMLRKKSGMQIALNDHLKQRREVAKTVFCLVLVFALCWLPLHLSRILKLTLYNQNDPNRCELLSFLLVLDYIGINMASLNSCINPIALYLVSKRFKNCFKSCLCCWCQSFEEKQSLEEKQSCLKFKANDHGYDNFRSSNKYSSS
Description: [125I]-ET-1 radioligand binding assay, CHO-K1 cells expressing recombinant human ETB R (HERBA-B). The following applies: CHO cell membranes, [125I]-ET-1 40 pM, 2 hours at 37° C. An excerpt: The compounds of Formula I are valuable as antagonists of endothelin.
The following radioligand binding assays were used (Reynolds E. E.; Keiser J. A.; Haleen S. J.; Walker D. M.; Davis L. S.; Olszewski B.; Taylor D. G.; Hwang O.; Welch K. M.; Flynn M. A.; Thompson D. M.; et. al., J. Pharmacol. Exp. Ther., 1995;273:1410-1417).
The following cultured cells were used in binding experiments: CHO-KL cells expressing recombinant human ETB R (HERBA B), or Ltk- cells expressing human ETA R (HERBA A). […] Membranes were prepared from cultured cells by lysing cells in cold lysis buffer (5 mM HEPES, 2 mM EDTA, pH 7.4) and homogenizing with a Dounce "A" homogenizer. All of the homogenates were centrifuged at 30,000×g for 20 minutes at 4° C. Membrane pellets were resuspended in cold buffer containing 20 mM Tris, […], 200 μM Pefablock, 10 μM phosphoramidon, 10 μM leupeptin, and 1 μM pepstatin (pH 7.4) and frozen at -80° C. until use. Radioligand and competing ligands were prepared in binding buffer containing 20 mM Tris, 2 mM EDTA, and 0.1% BSA.
Competition binding assays were initiated by combining membranes, [^125 ]-ET-1 (40 pM) and competing ligand in a final volume of 250 μL and incubating for 2 hours at 37° C. The assay was terminated by filtration over Whatman GF/B filters that were presoaked with 50 mM Tris, pH 7.4, containing 0.2% BSA and 100 μM bacitracin. […] was defined as total binding minus nonspecific binding. Specific binding was analyzed by nonlinear least squared curve fitting (InPlot, GraphPad Software, San Diego, Calif.), and the estimated IC50 value was used to calculate Ki according to the method of Cheng and Prusoff (1973).

Experiment [1] relates to endothelin-stimulated arachidonic acid release in rabbit renal artery vascular smooth muscle cells. Description: inhibition of ET-1 stimulated arachidonic acid release (AAR) in cultured rabbit renal artery vascular smooth muscle cells. Format: cell-based. The following applies: Oryctolagus cuniculus, 0.5 h, read-out: AAR-A.
Another experiment concerns the target T2, human ETA R (Homo sapiens, UniProt P25101).
T2 sequence (P25101 21-427): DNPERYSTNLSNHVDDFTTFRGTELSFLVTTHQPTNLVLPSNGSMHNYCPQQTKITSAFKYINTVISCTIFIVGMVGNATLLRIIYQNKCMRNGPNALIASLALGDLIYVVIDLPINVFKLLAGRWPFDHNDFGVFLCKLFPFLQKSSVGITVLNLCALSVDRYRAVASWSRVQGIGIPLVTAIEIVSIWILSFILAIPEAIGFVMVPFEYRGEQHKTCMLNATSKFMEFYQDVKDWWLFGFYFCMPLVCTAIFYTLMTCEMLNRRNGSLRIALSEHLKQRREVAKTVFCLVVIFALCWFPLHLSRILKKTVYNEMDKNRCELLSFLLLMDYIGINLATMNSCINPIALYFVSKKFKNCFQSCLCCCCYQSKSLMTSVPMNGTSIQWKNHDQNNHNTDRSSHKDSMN
Description: [125I]-ET-1 radioligand binding assay, Ltk- cells expressing human ETA R (HERBA-A). The following applies: Ltk- cell membranes, [125I]-ET-1 40 pM, 2 hours at 37° C.

The subject of the next experiment is neointima formation. The following applies: rats, carotid artery balloon angioplasty; cited from earlier work.
The conditions of experiment [2]: oral; cited from earlier work.
For experiment [3], the system named is ET-1 induced bronchoconstriction and tracheal smooth muscle contraction. The settings on record: allergic sheep; cited from earlier work.
For experiment [4], the system named is cerebral vasospasm. The following applies: in vivo; cited from earlier work.
The test system of experiment [5] is pulmonary vascular resistance and pulmonary arterial pressure. The settings on record: rat hypoxia model of hypertension; cited from earlier work.
In the next experiment the test system is acute renal ischemia. The following applies: models of acute renal ischemia; cited from earlier work.
Another experiment has as its system chronic heart failure. The settings on record: patients with chronic heart failure; cited from earlier work.
Experiment [6] relates to ET-1-induced changes in gastric mucosal hemodynamics and gastric ulceration. The settings on record: in vivo; cited from earlier work.
Another experiment concerns prostate smooth muscle. The settings on record: in vivo; cited from earlier work.
The test system of experiment [7] is ischemic damage in the cerebral hemisphere. The following applies: cats, middle cerebral artery occlusion, IV; cited from earlier work.
Experiment [8] deals with cerebral vasospasm. The following applies: rat; cited from earlier work.
The next experiment concerns ischemic brain injury. The settings on record: rats, oral; cited from earlier work.
Experiment [9] deals with vasoconstriction of the basilar artery. The settings on record: after 7 days, canine two-hemorrhage model of SAH; cited from earlier work.

We go through 15 compounds from patent publication US6133263A, “Endothelin antagonists with ether-linked groups” (Warner-Lambert Company, priority 1998, dated 2000).

Where two headings read alike, the source gives them in different places. Where a SMILES comes first, the peptide text is derived from it. [ ]: non-standard residue; d: D form.

With `COc1ccc(C2(OCCCS(=O)(=O)O)OC(=O)C(c3ccc4c(c3)OCO4)=C2Cc2cc(OC)c(OC)c(OC)c2)cc1` (centres unmarked), the IC50 at human ETB R was 1.9 µM; in experiment [1], 0.0003 µM; at human ETA R it was 0.00015 µM.
With `CCCOc1ccc2c(c1)C(c1ccc(OC)cc1OCC(=O)O)C(C(=O)O)C2c1ccc2c(c1)OCO2` (single isomer, unassigned) [SB 209670], in the experiment on neointima formation, the neointima formation result was “found to ameliorate neointima formation”.
For the compound `Cc1noc(NS(=O)(=O)c2cccc3c(N(C)C)cccc23)c1C` [5-(Dimethylamino)-N-(3,4-dimethyl-5-isoxazolyl)-1-naphthalenesulfonamide], the antihypertensive effect entry in experiment [2] was “demonstrated an oral antihypertensive effect”.
`CC(C)C[C@@H]1NC(=O)[C@@H](C(C)C)NC(=O)[C@@H]2CCCN2C(=O)[C@@H](CC(=O)O)NC(=O)[C@@H](Cc2c[nH]c3ccccc23)NC1=O` [BQ-123] (cyclo(L[dW][dD]P[dV])): in experiment [3], the “ET-1 induced bronchoconstriction and tracheal smooth muscle contraction” value is “shown to block ET-1 induced bronchoconstriction and tracheal smooth muscle contraction”. The “early cerebral vasospasm following SAH” value with cerebral vasospasm [4] was “shown to prevent early cerebral vasospasm”. In addition, in experiment [5], the “protection / increase in pulmonary vascular resistance and pulmonary arterial pressure” value (“protection / increase” below) is reported as “provide protection in a rat hypoxia model of hypertension”.
With `COc1ccccc1Oc1c(NS(=O)(=O)c2ccc(C(C)(C)C)cc2)nc(-c2ncccn2)nc1OCCO` [Bosentan], the “efficacy in acute renal ischemia” value with acute renal ischemia is on record as “effective in models of acute renal ischemia”. Moreover, the cardiac performance result with chronic heart failure is “found to improve cardiac performance”. The “ET-1-induced changes in gastric mucosal hemodynamics and ET-1-induced gastric ulceration” value in [6] is “found to be an antagonist toward the ET-1-induced changes in gastric mucosal hemodynamics as well as on ET-1-induced gastric ulceration”. Moreover, in [5], the “protection / increase” value was “provide protection in a rat hypoxia model of hypertension”.
As to `COc1ccc(C2(OCCN3CCOCC3)OC(=O)C(c3ccc4c(c3)OCO4)=C2Cc2cc(OC)c(OC)c(OC)c2)cc1` (centres unmarked) [Example 1], the IC50 on human ETB R was determined as 12 µM; in experiment [1] (ET-1 0.3 nM, test compound 1 nM to 1 μM, 30 minutes), 0.01 µM; at human ETA R, 0.0028 µM.
For the compound `COc1ccc(C2(OCCCN(C)C)OC(=O)C(c3ccc4c(c3)OCO4)=C2Cc2cc(OC)c(OC)c(OC)c2)cc1` (centres unmarked) [Example 3, 3-Benzo[1,3]dioxol-5-yl-5-(3-dimethylamino-propoxy)-5-(4-methoxy-phenyl)-4-(3,4,5-trimethoxy-benzyl)-5H-furan-2-one], the IC50 on human ETB R is more than 2.5 µM; at human ETA R, 0.012 µM.
Taken in the same sequence, the figures for `COc1ccc(C2(OCCN(C)C)OC(=O)C(c3ccc4c(c3)OCO4)=C2Cc2cc(OC)c(OC)c(OC)c2)cc1` (centres unmarked) [Example 4, 3-Benzo[1,3]dioxol-5-yl-5-(2-dimethylamino-ethoxy)-5-(4-methoxy-phenyl)-4-(3,4,5-trimethoxy-benzyl)-5H-furan-2-one] were 1.08 µM and 0.0003 µM.
In the case of `COc1ccc(C2(OCCN3CCOCC3)OC(=O)C(c3cc(OC)c4c(c3)OCO4)=C2Cc2cc(OC)c(OC)c(OC)c2)cc1` (centres unmarked) [Example 5, 3-(7-Methoxy-benzo[1,3]dioxol-5-yl)-5-(4-methoxy-phenyl)-5-(2-morpholin-4-yl-ethoxy)-4-(3,4,5-trimethoxy-benzyl)-5H-furan-2-one], the IC50 came out at 0.7 µM on human ETB R and 0.0017 µM on human ETA R.
For the compound `COc1ccc(C2(OCCN(C)C)OC(=O)C(c3cc(OC)cc(OC)c3)=C2Cc2cc(OC)c(OC)c(OC)c2)cc1` (centres unmarked) [Example 6], the results for the IC50 on human ETB R and at human ETA R were 2.2 µM and 0.0026 µM, respectively.
As for `COc1ccc(C2(O)OC(=O)C(c3ccc4c(c3)OCO4)=C2Cc2ccccc2)cc1` (centres unmarked) [PD 155080], the “prostate smooth muscle function” value in the experiment on prostate smooth muscle is listed as “found to mediate prostate smooth muscle function in vivo”.
On to `COc1ccc(C2(O)OC(=O)C(c3ccc4c(c3)OCO4)=C2Cc2cc(OC)c(OC)c(OC)c2)cc1` (centres unmarked) [PD 156707], for which, in experiment [5], the “protection / increase” value is “provide protection in a rat hypoxia model of hypertension”. For the same compound, the “volume of ischemic damage in the cerebral hemisphere” value in experiment [7] was “significantly reduced”.
As to `COc1cccc(Oc2c(NS(=O)(=O)c3ccc(C(C)(C)C)cc3)ncnc2OCCO)c1` [Ro 46-2005], the “early cerebral vasospasm following SAH” value with cerebral vasospasm [8] was “shown to prevent early cerebral vasospasm”.
As for `CCCOc1ccc2c(c1)C(c1ccc(OC)cc1OCCO)C(C(=O)O)C2c1ccc2c(c1)OCO2` (centres unmarked) [SB 217242], the ischemic brain injury result in the experiment on ischemic brain injury was “Reduction of ischemic brain injury”.
For the compound FR 139317, the “vasoconstriction of the basilar artery” value in experiment [9] was “significantly inhibited the vasoconstriction of the basilar artery”.
